PubChem BioAssay AID1259407 (Chemical Carcinogenesis Research Information System (CCRIS), 2018)
The source made the active and inactive calls. The rule behind the calls is not given here.

Tested on: CCRIS mutagenicity, Ames/micronucleus/aberration tests
Assay: CCRIS mutagenicity studies
[1] = Test System: AMES SALMONELLA TYPHIMURIUM, Strain/Indicator: TA98, Metabolic Activation: NONE, Method: STANDARD PLATE
[2] = Test System: AMES SALMONELLA TYPHIMURIUM, Strain/Indicator: TA100, Metabolic Activation: NONE, Method: STANDARD PLATE
[3] = Test System: AMES SALMONELLA TYPHIMURIUM, Strain/Indicator: TA100, Metabolic Activation: NONE, Method: PREINCUBATION
[4] = Test System: AMES SALMONELLA TYPHIMURIUM, Strain/Indicator: TA98, Metabolic Activation: NONE, Method: PREINCUBATION
[5] = Test System: AMES SALMONELLA TYPHIMURIUM, Strain/Indicator: TA1535, Metabolic Activation: NONE, Method: PREINCUBATION
[6] = Test System: AMES SALMONELLA TYPHIMURIUM, Strain/Indicator: TA98, Metabolic Activation: RAT, LIVER, S-9, AROCLOR 1254, Method: PREINCUBATION
[7] = Test System: AMES SALMONELLA TYPHIMURIUM, Strain/Indicator: TA100, Metabolic Activation: RAT, LIVER, S-9, AROCLOR 1254, Method: PREINCUBATION
[8] = Test System: MOUSE LYMPHOMA, Strain/Indicator: L5178Y (TK+/TK-), Metabolic Activation: NONE, Method: SUSPENSION/PLATE
[9] = Test System: MOUSE LYMPHOMA, Strain/Indicator: L5178Y (TK+/TK-), Metabolic Activation: RAT, LIVER, S-9, AROCLOR 1254, Method: SUSPENSION/PLATE

## CC(=O)OCCCCONC(=O)c1ccccc1
[1]
  mutagenic call: active; positive
[2]
  mutagenic call: active; positive
Test System: AMES SALMONELLA TYPHIMURIUM, Strain/Indicator: TA100, Metabolic Activation: RAT,S-9, AROCLOR, Method: STANDARD PLATE
  mutagenic call: active; positive

## O=[N+]([O-])c1c2c3c(ccc4cccc(c43)CC2)c2ccccc12
[1]
  mutagenic call: active; positive
[2]
  mutagenic call: inactive; negative

## CC/C(=C(/CC)c1ccc(OP(=O)(O)O)cc1)c1ccc(OP(=O)(O)O)cc1
[1]
  mutagenic call: inactive; negative
[2]
  mutagenic call: inactive; negative
Test System: E. COLI, Strain/Indicator: WP2 (HCR), Metabolic Activation: NONE, Method: STANDARD PLATE
  mutagenic call: inactive; negative

## Cl[Si](Cl)Cl
Test System: Mouse lymphoma, Strain/Indicator: L5178Y (tk+/tk-), Metabolic Activation: None, Method: Suspension/plate
  mutagenic call: inactive; negative
Test System: Mouse lymphoma, Strain/Indicator: L5178Y (tk+/tk-), Metabolic Activation: Rat, Liver, S-9, Aroclor 1254, Method: Suspension/plate
  mutagenic call: inactive; negative

## CC12OOC1(CO)Oc1ccccc12 (stereo unspecified)
[3]
  mutagenic call: inactive; negative

## O=C1OCC(CCl)=C1Cl
[2]
  mutagenic call: active; positive

## Cc1ccc2nsc(NC(=O)C(Cl)Cl)c2c1
[1]
  mutagenic call: active; positive
Test System: AMES SALMONELLA TYPHIMURIUM, Strain/Indicator: TA98, Metabolic Activation: S-9, Method: STANDARD PLATE
  mutagenic call: active; positive
[2]
  mutagenic call: active; positive
Test System: AMES SALMONELLA TYPHIMURIUM, Strain/Indicator: TA100, Metabolic Activation: S-9, Method: STANDARD PLATE
  mutagenic call: active; positive
Test System: AMES SALMONELLA TYPHIMURIUM, Strain/Indicator: TA1535, Metabolic Activation: NONE, Method: STANDARD PLATE
  mutagenic call: inactive; negative
Test System: AMES SALMONELLA TYPHIMURIUM, Strain/Indicator: TA1535, Metabolic Activation: S-9, Method: STANDARD PLATE
  mutagenic call: inactive; negative
Test System: AMES SALMONELLA TYPHIMURIUM, Strain/Indicator: TA1537, Metabolic Activation: NONE, Method: STANDARD PLATE
  mutagenic call: active; positive
Test System: AMES SALMONELLA TYPHIMURIUM, Strain/Indicator: TA1537, Metabolic Activation: S-9, Method: STANDARD PLATE
  mutagenic call: active; positive

## Cc1cc(C)cc(N)c1
Test System: AMES SALMONELLA TYPHIMURIUM, Strain/Indicator: TA97, Metabolic Activation: HAMSTER, LIVER, S-9, AROCLOR 1254 (10%), Method: PREINCUBATION
  mutagenic call: inactive; negative
Test System: AMES SALMONELLA TYPHIMURIUM, Strain/Indicator: TA97, Metabolic Activation: NONE, Method: PREINCUBATION
  mutagenic call: inactive; negative
Test System: AMES SALMONELLA TYPHIMURIUM, Strain/Indicator: TA97, Metabolic Activation: RAT, LIVER, S-9, AROCLOR 1254 (10%), Method: PREINCUBATION
  mutagenic call: inactive; negative
Test System: AMES SALMONELLA TYPHIMURIUM, Strain/Indicator: TA98, Metabolic Activation: HAMSTER, LIVER, S-9, AROCLOR 1254 (10%), Method: PREINCUBATION
  mutagenic call: inactive; negative
[4]
  mutagenic call: inactive; negative
Test System: AMES SALMONELLA TYPHIMURIUM, Strain/Indicator: TA98, Metabolic Activation: RAT, LIVER, S-9, AROCLOR 1254 (10%), Method: PREINCUBATION
  mutagenic call: inactive; negative
[3]
  mutagenic call: inactive; negative
Test System: AMES SALMONELLA TYPHIMURIUM, Strain/Indicator: TA100, Metabolic Activation: RAT, LIVER, S-9, AROCLOR 1254 (10%), Method: PREINCUBATION
  mutagenic call: inactive; negative
Test System: AMES SALMONELLA TYPHIMURIUM, Strain/Indicator: TA1535, Metabolic Activation: HAMSTER, LIVER, S-9, AROCLOR 1254 (10%), Method: PREINCUBATION
  mutagenic call: inactive; negative
[5]
  mutagenic call: inactive; negative
Test System: AMES SALMONELLA TYPHIMURIUM, Strain/Indicator: TA1535, Metabolic Activation: RAT, LIVER, S-9, AROCLOR 1254 (10%), Method: PREINCUBATION
  mutagenic call: inactive; negative
Test System: AMES SALMONELLA TYPHIMURIUM, Strain/Indicator: TA1537, Metabolic Activation: HAMSTER, LIVER, S-9, AROCLOR 1254 (10%), Method: PREINCUBATION
  mutagenic call: inactive; negative

## Clc1cc(Cl)c(Cl)c(Cl)c1Cl
Test System: AMES SALMONELLA TYPHIMURIUM, Strain/Indicator: TA98, Metabolic Activation: HAMSTER, LIVER, S-9, AROCLOR 1254, Method: PREINCUBATION
  mutagenic call: inactive; negative
[4]
  mutagenic call: inactive; negative
[6]
  mutagenic call: inactive; negative
Test System: AMES SALMONELLA TYPHIMURIUM, Strain/Indicator: TA100, Metabolic Activation: HAMSTER, LIVER, S-9, AROCLOR 1254, Method: PREINCUBATION
  mutagenic call: inactive; negative
[3]
  mutagenic call: inactive; negative
[7]
  mutagenic call: inactive; negative
Test System: AMES SALMONELLA TYPHIMURIUM, Strain/Indicator: TA1535, Metabolic Activation: HAMSTER, LIVER, S-9, AROCLOR 1254, Method: PREINCUBATION
  mutagenic call: inactive; negative
[5]
  mutagenic call: inactive; negative
Test System: AMES SALMONELLA TYPHIMURIUM, Strain/Indicator: TA1535, Metabolic Activation: RAT, LIVER, S-9, AROCLOR 1254, Method: PREINCUBATION
  mutagenic call: inactive; negative
Test System: AMES SALMONELLA TYPHIMURIUM, Strain/Indicator: TA1537, Metabolic Activation: HAMSTER, LIVER, S-9, AROCLOR 1254, Method: PREINCUBATION
  mutagenic call: inactive; negative
Test System: AMES SALMONELLA TYPHIMURIUM, Strain/Indicator: TA1537, Metabolic Activation: NONE, Method: PREINCUBATION
  mutagenic call: inactive; negative
Test System: AMES SALMONELLA TYPHIMURIUM, Strain/Indicator: TA1537, Metabolic Activation: RAT, LIVER, S-9, AROCLOR 1254, Method: PREINCUBATION
  mutagenic call: inactive; negative

## COc1cc2c(c3oc(=O)c4c(c13)CCC4=O)[C@H]1[C@@H](O2)O[C@@H]2O[C@@H]21
[4]
  mutagenic call: active; positive
[6]
  mutagenic call: active; positive
Test System: AMES SALMONELLA TYPHIMURIUM, Strain/Indicator: TA100, Metabolic Activation: NONE, Method: MICROSUSPENSION
  mutagenic call: active; positive
[3]
  mutagenic call: active; positive
Test System: AMES SALMONELLA TYPHIMURIUM, Strain/Indicator: TA100, Metabolic Activation: RAT, LIVER, S-9, AROCLOR 1254, Method: MICROSUSPENSION
  mutagenic call: active; positive
[7]
  mutagenic call: active; positive

## CC1CCOB(OCCC(C)OB2OCCC(C)O2)O1 (stereo unspecified)
[8]
  mutagenic call: inactive; negative. reevaluation of results: negative
[9]
  mutagenic call: inactive; negative. reevaluation of results: negative

## C=CC(=O)OCCC
[8]
  mutagenic call: active; positive. reevaluation of results: positive
[9]
  mutagenic call: active; positive. reevaluation of results: positive

## O[C@H]1C=Cc2c(cc3c4c(cc5ccccc53)-c3ccccc3-c24)[C@@H]1O
Test System: AMES SALMONELLA TYPHIMURIUM, Strain/Indicator: TA100, Metabolic Activation: MOUSE, LIVER, S-9, 3-METHYLCHOLANTHRENE, Method: STANDARD PLATE
  mutagenic call: active; positive
Test System: AMES SALMONELLA TYPHIMURIUM, Strain/Indicator: TA100, Metabolic Activation: RAT, LIVER, S-9, 3-METHYLCHOLANTHRENE, Method: STANDARD PLATE
  mutagenic call: active; positive
